From patent publication US20110306775A1, “SYNTHESIS AND BIOLOGICAL EVALUATION OF 2',5'-DIMETHOXYCHALCONE DERIVATIVES AS MICROTUBULE-TARGETED ANTICANCER AGENTS” (KAOHSIUNG MEDICAL UNIVERSITY, priority 2010, published 2011)
“Also recorded” adds a separate entry of the source.

Legend:
[1] = system: NTUB1 cells; test: MTT cytotoxicity assay, NTUB1 cells; assay type: cell-based, human; conditions: for IC50: mean ± SD, n = 3-5
From the text: (§1) The cell lines of the present invention were an human urothelial carcinoma cell line (NTUB1), a human prostate cancer cell line (PC3), a human lung adenocarcinoma epithelial cell line (A549) and a SV-40 immortalized human uroepithelial cell line (SV-HUC1). However, the cell lines applied in the present invention includes but not limit in NTUB1, PC3, A549 and SV-HUC1 cells. Other cell lines having the same characteristics or not exactly the same characteristics are able to be used in the present invention. NTUB1, PC3 and A549 cells were maintained in RPMI 1640 and SV-HUC1 cells were maintained in F12 medium supplemented with 10% fetal bovine serum (FBS), 100 unit/mL penicillin-G, 100 μg/mL streptomycin and 2 mM glutamine. The cells were cultured at 37° C. in a humidified atmosphere containing 5% carbon dioxide.
(§2) The cytotoxic effect of compounds 1 to 18 of the present invention and cisplatin (positive control) on the cell lines was evaluated using 3-[4,5-dimethylthiazol-2-yl]-2,5-diphenyltetrazolium bromide (MTT) assay. Briefly, the cells were plated at a density of 1800 cells/well in 96-well plates and incubated in the presence of graded concentrations of compounds 1 to 18 and cisplatin at 37° C. for 72 hours. At the end of the culture period, 50 μL of MTT ([…] in PBS) was added to each well and allowed to react for 3 hours. Following centrifugation of plates at 1000 g for 10 minutes, media were removed and 150 μL dimethyl sulfoxide (DMSO) were added to each well. The proportions of surviving cells were determined by absorbance spectrometry at 540 nm. The cell viability was expressed as a percentage to the viable cells of control culture condition. The IC50 value of each group were calculated by the median-effect analysis and presented as mean±standard deviation (SD).

[2] = system: PC3 cells; test: MTT cytotoxicity assay, PC3 cells; assay type: cell-based, human; conditions: for IC50: mean ± SD, n = 3-5
From the text: as §1, §2

[3] = system: A549 cells; test: MTT cytotoxicity assay, A549 cells; assay type: cell-based, human; conditions: FIG. 1, compared with NTUB1 and PC3
From the text: as §1
(§3) The cytotoxic effect of compounds 1 to 18 of the present invention and cisplatin (positive control) on the cell lines was evaluated using 3-[4,5-dimethylthiazol-2-yl]-2,5-diphenyltetrazolium bromide (MTT) assay. […] The proportions of surviving cells were determined by absorbance spectrometry at 540 nm. The cell viability was expressed as a percentage to the viable cells of control culture condition. The IC50 value of each group were calculated by the median-effect analysis and presented as mean±standard deviation (SD).

[4] = system: SV-HUC1 cells; test: MTT cytotoxicity assay, SV-HUC1 cells; assay type: cell-based, human; conditions: FIG. 1, compared with NTUB1 and PC3
From the text: as §1, §3

[5] = system: NTUB1 cells; test: Cell cycle analysis (propidium iodide, flow cytometer), NTUB1 cells; assay type: cell-based, human; conditions: NTUB1, 1 μM, 24 hours, FIG. 2
Description: (§4) DNA content was determined following propidium iodide (PI) staining of cells. Briefly, 6×10^5 cells were plated and treated with 20 μM cisplatin and various concentrations of compounds 11 and 15 for 24 hours, respectively. These cells were harvested by trypsinization, washed with 1×PBS, and fixed in ice-cold MeOH at −20° C. After overnight incubation, the cells were washed with PBS and incubated with 50 μg/mL propidium iodide and 50 μg/mL RNase A in PBS at room temperature for 30 minutes. The fractions of cells in each phase of cell cycle were analyzed using flow cytometer.

[6] = system: PC3 cells; test: Cell cycle analysis (propidium iodide, flow cytometer), PC3 cells; assay type: cell-based, human; conditions: FIG. 3
Description: as §4

[7] = system: NTUB1 cells; test: Immuno-fluorescence staining of α-tubulin in NTUB1 cells; assay type: cell-based, human
Description: In brief, NTUB 1 cells were seeded onto serum-coated coverslides. The cells were fixed with 2% formaldehyde/PBS for 20 minutes followed by cold methanol permeabilization for 3 minutes. The cells were washed with 1×PBS five minutes twice. The cells were then incubated with α-tubulin primary antibody overnight. The cells were washed with 1×PBS five minutes thrice. Goat anti-rabbit-rhodamine secondary antibody and 1 μg/mL 4′-6-diamidino-2-phenylindole (DAPI) were incubated for 1 hour at room temperature. The slides were washed with 1×PBS, mounted with mounting solution (80% glycerol/PBS) and photographed by microscopy.

[8] = system: α-tubulin; test: Western blot analysis for α-tubulin (soluble vs assembled) in NTUB1 cells; assay type: cell-based, human; conditions: NTUB1, various concentrations, 6 hours, FIG. 4
Description: NTUB1 cells were seeded at a density of 1×10^6/[…] dishes and treated with indicated concentrations of test agents for 6 hours. The cells were then washed with cold PBS and lysed by adding lysis buffer (20 mM Tris-HCl (pH 6.8), 1 mM MgCl2, 2 mM EGTA (ethylene glycol tetraacetic acid), […] aprotinin, […], 1 mM phenylmethylsulfonyl fluoride, 1 mM orthovanadate, and 0.5% Nonidet P-40). The cell lysates were centrifuged at 15,000 g for 10 min at 4° C. Soluble and assembled tubulin could be separated in supernatant and pellet fraction, respectively. The supernatants and pellets were […] by the sodium dodecyl sulfate (SDS)-polyacrylamide gel electrophoresis assay. The relative amounts of tubulins transferred on the nitrocellulose membrane were detected by anti-tubulin monoclonal antibody and horseradish peroxidase (HRP)-conjugated secondary antibody. β-Actin was used for control. Detection of immunoreactive signal was accomplished with Western blot chemiluminescent reagent.

[9] = system: NTUB1 cells; test: Cell death and morphology of treated NTUB1 cells; assay type: cell-based, human; conditions: NTUB1, different concentrations, 24 hours, data not shown

SMILES: COc1ccc(OC)c(C(=O)/C=C/c2ccc(C(=O)NC3CCCCC3)cc2)c1 [Compound 13, 4-cyclohexylcarbamoyl-2′,5′-dimethoxychalcone]
- IC50 ([1]; Homo sapiens, NTUB1, 72 hours): 2.25 ± 0.57 µM
- IC50 ([2]; Homo sapiens, PC-3, 72 hours): 6.3 ± 0.59 µM
- melting point: 280 to 281 °C

SMILES: COc1ccc(OC)c(C(=O)/C=C/c2ccc(C(=O)OCc3ccccc3)cc2)c1 [Compound 6, 4-benzyloxycarbonyl-2′,5′-dimethoxychalcone]
- IC50 ([1]; Homo sapiens, NTUB1, 72 hours): 13.3 ± 2.86 µM
- IC50 ([2]; Homo sapiens, PC-3, 72 hours): 17.9 ± 0.5 µM

SMILES: COc1ccc(OC)c(C(=O)C=Cc2ccc(C(=O)N(C)CCO)cc2)c1 [Compound 16, 4-(2-hydroxyethyl)methyl-carbamoyl-2′,5′-dimethoxychalcone]
- IC50 ([1]; 72 hours): 4.42 ± 0.15 µM
- IC50 ([2]; 72 hours): 5.75 ± 1.27 µM

SMILES: CCCOC(=O)c1ccc(C=CC(=O)c2cc(OC)ccc2OC)cc1 [Compound 4, propoxycarbonyl-2′,5′-dimethoxychalcone]
- IC50 ([1]; 72 hours): 6.01 ± 0.3 µM
- IC50 ([2]; 72 hours): 26.9 µM

SMILES: CCN(CC)C(=O)c1ccc(/C=C/C(=O)c2cc(OC)ccc2OC)cc1 [Compound 14, 4-diethylcarbamoyl-2′,5′-dimethoxychalcone]
- IC50 ([1]; Homo sapiens, NTUB1, 72 hours): 2.69 ± 0.47 µM
- IC50 ([2]; Homo sapiens, PC-3, 72 hours): 3.79 ± 0.56 µM

SMILES: COc1ccc(OC)c(C(=O)/C=C/c2ccc(C(=O)OCC=C(C)C)cc2)c1 [Compound 7, 4-(3-methyl-but-2-enyloxycarbonyl)-2′,5′-dimethoxychalcone]
- IC50 ([1]; Homo sapiens, NTUB1, 72 hours): 13.4 ± 0.78 µM
- IC50 ([2]; Homo sapiens, PC-3, 72 hours): > 50 µM

SMILES: CCCNC(=O)c1ccc(/C=C/C(=O)c2cc(OC)ccc2OC)cc1 [Compound 10, 4-propylcarbamoyl-2′,5′-dimethoxychalcone]
- cytotoxicity against NTUB1 cells (in words) [1]: significantly enhanced the cytotoxicity
- IC50 ([1]; Homo sapiens, NTUB1, 72 hours): 2.26 ± 0.31 µM
- cytotoxicity against PC3 cells (in words) [2]: significantly enhanced the cytotoxicity
- IC50 ([2]; Homo sapiens, PC-3, 72 hours): 1.5 ± 0.22 µM

SMILES: COc1ccc(OC)c(C(=O)/C=C/c2ccc(C(=O)OC(C)C)cc2)c1 [Compound 5, 4-isopropoxycarbonyl-2′,5′-dimethoxychalcone]
- IC50 ([1]; Homo sapiens, NTUB1, 72 hours): 4.42 ± 0.5 µM
- IC50 ([2]; Homo sapiens, PC-3, 72 hours): 6.74 ± 1.34 µM

SMILES: COc1ccc(OC)c(C(=O)C=Cc2ccc(C(=O)N3CCCC3)cc2)c1 [Compound 15, 4-tetrahydropyrrolylcarbamoyl-2′,5′-dimethoxychalcone]
- cytotoxicity against NTUB1 cells (in words) [1]: significantly enhanced the cytotoxicity; also recorded: strongest cytotoxicity
- IC50 ([1]; 72 hours): 1.26 ± 0.25 µM
- cytotoxicity against PC3 cells (in words) [2]: significantly enhanced the cytotoxicity; also recorded: strongest cytotoxicity
- IC50 ([2]; 72 hours): 0.53 µM
- cytotoxicity against A549 cells (in words) [3]: more potent cytotoxic effect against NTUB1 and PC3 cells than that of A549 cells; also recorded: less cytotoxicity
- cytotoxicity against human normal uroepithelial SV-HUC1 cells (in words) [4]: less cytotoxicity against human normal uroepithelial SV-HUC1 cells than those of NTUB1 and PC3 cells lines
- apoptotic cell death [5]: increase in apoptotic cell death
- cell cycle phase arrest ([5]; vs control): induced G1 phase arrest
- apoptotic cells death ([6]; PC3, 0.3 μM): increase of the apoptotic cells death
- apoptotic cells ([6]; PC3, 1 μM): increase of apoptotic cells
- cells arrested at mitosis ([7]; NTUB1, 1 μM, data not shown): induced more NTUB1 cells arrested at mitosis
- microtubule bundle formation ([7]; NTUB1, immuno-fluorescent microscopy, mimicked the effect of paclitaxel): induced the microtubule bundle formation
- α-tubulin level in the pellet (assembled) [8]: increased in a dose-dependent manner
- α-tubulin level in the supernatant (soluble) [8]: decreased level in a dose-dependent manner
- cell death and cell shape after treatment [9]: more cell death and rounding up

SMILES: COc1ccc(OC)c(C(=O)/C=C/c2ccc(C(=O)N(C)C)cc2)c1 [Compound 12, 4-dimethylcarbamoyl-2′,5′-dimethoxychalcone]
- IC50 ([1]; Homo sapiens, NTUB1, 72 hours): 3.89 ± 0.21 µM
- IC50 ([2]; Homo sapiens, PC-3, 72 hours): 4.58 ± 1.05 µM

SMILES: CCOC(=O)c1ccc(/C=C/C(=O)c2cc(OC)ccc2OC)cc1 [Compound 3, 4-ethoxycarbonyl-2′,5′-dimethoxychalcone]
- IC50 ([1]; Homo sapiens, NTUB1, 72 hours): 4.49 ± 0.98 µM
- IC50 ([2]; Homo sapiens, PC-3, 72 hours): 5.7 ± 0.43 µM
